From US7683097B2, “Topoisomerase inhibitors” (Propharmacon Inc., priority 2004, dated 2010)

Assays:
Type in all cases: cell-based
[1] = test system: MCF-7; test: Cell proliferation assay, MCF-7; conditions: Homo sapiens, MCF7; MCF-7 cell line, Table II; read-out: Activity (IC50, cell proliferation)
Description: The MCF-7 cell line, the MDR cell line, and the MCF-7/ADR cell line were used. Alamar Blue™ was used to quantitate cell viability.
The compounds listed in Table II were prepared using the procedures outlined in the above Examples.

[2] = test system: HL-60; test: Cell proliferation assay, Leukemia HL-60; conditions: Homo sapiens, read-out: GI50 or IC50, Leukemia HL-60
Description: (§1) The compounds listed in Table III were prepared using the procedures outlined in the above Examples.

[3] = test system: HL60-MX1 (MDR); test: Cell proliferation assay, Leukemia HL60-MX1 (MDR); conditions: read-out: GI50 or IC50, Leukemia HL60-MX1 (MDR)
Description: as §1

[4] = test system: NCI-H460; test: Cell proliferation assay, NSC Lung Cancer NCI-H460; conditions: Homo sapiens, read-out: GI50 or IC50, NSC Lung Cancer NCI-H460
Description: as §1

[5] = test system: H69-AR (MDR); test: Cell proliferation assay, SC Lung Cancer H69-AR (MDR); conditions: Homo sapiens, H69AR; read-out: GI50 or IC50, SC Lung Cancer H69-AR (MDR)
Description: as §1

[6] = test system: HCT-15; test: Cell proliferation assay, Colon Cancer HCT-15; conditions: Homo sapiens, read-out: GI50 or IC50, Colon Cancer HCT-15
Description: as §1

[7] = test system: SF-268; test: Cell proliferation assay, CNS Cancer SF-268; conditions: Homo sapiens, read-out: GI50 or IC50, CNS Cancer SF-268
Description: as §1

[8] = test system: SK-MEL-2; test: Cell proliferation assay, Melanoma SK-MEL-2; conditions: Homo sapiens, read-out: GI50 or IC50, Melanoma SK-MEL-2
Description: (§2) The compounds listed in Table IV were prepared using the procedures outlined in the above Examples.

[9] = test system: OVCAR-3; test: Cell proliferation assay, Ovarian Cancer OVCAR-3; conditions: Homo sapiens, read-out: GI50 or IC50, Ovarian Cancer OVCAR-3
Description: as §2

[10] = test system: MES-SA/Dx5; test: Cell proliferation assay, Uterine MES-SA/Dx5; conditions: Homo sapiens, read-out: GI50 or IC50, Uterine MES-SA/Dx5
Description: as §2

[11] = test system: UO-31; test: Cell proliferation assay, Renal Cancer UO-31; conditions: Homo sapiens, read-out: GI50 or IC50, Renal Cancer UO-31
Description: as §2

[12] = test system: PC-3; test: Cell proliferation assay, Prostate Cancer PC-3; conditions: Homo sapiens, read-out: GI50 or IC50, Prostate Cancer PC-3
Description: as §2

[13] = test system: MCF-7; test: Cell proliferation assay (panel), Breast Cancer MCF-7; conditions: Homo sapiens, MCF7; read-out: GI50 or IC50, Breast Cancer MCF-7
Description: as §2

[14] = test system: NCI-ADR; test: Cell proliferation assay, Breast Cancer NCI-ADR; conditions: Homo sapiens, NCI/ADR-RES; read-out: GI50 or IC50, Breast Cancer NCI-ADR
Description: as §2

| Structure (SMILES) | IC50 [1] | IC50 [4] | IC50 [6] | IC50 [7] | IC50 [8] | IC50 [9] | IC50 [11] | IC50 [12] | IC50 [13] | further results |
| --- | --- | --- | --- | --- | --- | --- | --- | --- | --- | --- |
| COc1ncc(NC(=O)c2ccc(Cl)c(-c3ccc(-c4ccccc4)cc3)c2)cn1 | < 1000 nM |  |  |  |  |  |  |  |  |  |
| COc1ccc(NC(=O)c2ccc(Cl)c(-c3ccc(-c4cccc(O)c4)cc3)c2)cn1 | < 1000 nM |  |  |  |  |  |  |  |  |  |
| COc1ccc(NC(=O)c2ccc(Cl)c(-c3cccc(O)c3)c2)cn1 | < 1000 nM |  |  |  |  |  |  |  |  |  |
| COc1ccc(NC(=O)c2ccc(Cl)c(-c3ccc(-c4cccc(S(C)(=O)=O)c4)cc3)c2)cn1 | < 1000 nM |  |  |  |  |  |  |  |  |  |
| CCN(CC)CCNC(=O)c1ccc(Cl)c(-c2ccc(-c3ccccc3)cc2)c1 | < 1000 nM |  |  |  |  |  |  |  |  |  |
| COc1ccc(NC(=O)c2ccc(Cl)c(-c3cccc(C(N)=O)c3)c2)cn1 | < 1000 nM |  |  |  |  |  |  |  |  |  |
| O=C(NCCN1CCCC1)c1cccc(-c2ccc(-c3ccccc3)cc2)c1 | 1000 to 10000 nM |  |  |  |  |  |  |  |  |  |
| C=C[S+]([O-])c1ccc(NC(=O)c2ccc(Cl)c(-c3ccc(-c4ccccc4)cc3)c2)cn1 (centres unmarked) | 1000 to 10000 nM |  |  |  |  |  |  |  |  |  |
| O=C(Nc1nnc(C(F)(F)F)s1)c1ccc(Cl)c(-c2ccc(-c3ccccc3)cc2)c1 | 1000 to 10000 nM |  |  |  |  |  |  |  |  |  |
| CS(=O)(=O)c1ccc(-c2cc(C(=O)NC3=NCCS3)ccc2Cl)cc1 | 1000 to 10000 nM |  |  |  |  |  |  |  |  |  |
| O=C(NCCc1c[nH]cn1)C1Cc2ccccc2CN1C(=O)c1ccc(Cl)c(-c2ccc(-c3ccccc3)cc2)c1 (centres unmarked) | > 10000 nM |  |  |  |  |  |  |  |  |  |
| O=C(Nc1cccnc1Cl)c1ccc(Cl)c(-c2ccc(-c3ccccc3)cc2)c1 | > 10000 nM |  |  |  |  |  |  |  |  |  |
| CC(C)(C)OC(=O)NOC(=O)c1ccc(Cl)c(-c2ccc(-c3ccccc3)cc2)c1 | > 10000 nM |  |  |  |  |  |  |  |  |  |
| CCN(C(=O)c1ccc(Cl)c(-c2ccc(-c3ccccc3)cc2)c1)c1ccc2c(c1)OCO2 | > 10000 nM |  |  |  |  |  |  |  |  |  |
| O=C(Nc1cnccn1)c1ccc(Cl)c(-c2ccc(-c3ccccc3)cc2)c1 [Compound 5, 6″-Chloro-[1,1′;4′,1″]terphenyl-3″-carboxylic acid pyrazin-2-ylamide] |  | ≤ 1000 nM | ≤ 1000 nM | ≤ 1000 nM | 1000 to 25000 nM | ≤ 1000 nM | ≤ 1000 nM | ≤ 1000 nM | ≤ 1000 nM | IC50 [2]: ≤ 1000 nM; IC50 [3]: ≤ 1000 nM; IC50 [5]: ≤ 1000 nM; IC50 [10]: ≤ 1000 nM |
| COc1ccc(NC(=O)c2ccc(Cl)c(-c3ccc(-c4ccccc4)c(F)c3)c2)cn1 [Compound 6, 6″-Chloro-2′-fluoro-[1,1′;4′,1″]terphenyl-3″-carboxylic acid (6-methoxy-pyridin-3-yl)-amide] |  | ≤ 1000 nM | ≤ 1000 nM | 1000 to 25000 nM | 1000 to 25000 nM | ≤ 1000 nM | 1000 to 25000 nM | ≤ 1000 nM | ≤ 1000 nM | IC50 [3]: ≤ 1000 nM; IC50 [5]: ≤ 1000 nM; IC50 [10]: ≤ 1000 nM; IC50 [14]: ≤ 1000 nM |
| COc1ccc(NC(=O)c2ccc(Cl)c(-c3ccc(-c4ccccc4)cc3)c2)cn1 [Compound 8, 6-Chloro-[1,1′;4′,1″]terphenyl-3-carboxylic acid (6-methoxy-pyridin-3-yl)-amide] |  | ≤ 1000 nM | ≤ 1000 nM | ≤ 1000 nM | 1000 to 25000 nM | ≤ 1000 nM | 1000 to 25000 nM | ≤ 1000 nM | > 25000 nM | IC50 [2]: ≤ 1000 nM; IC50 [3]: 1000 to 25000 nM; IC50 [5]: ≤ 1000 nM; IC50 [10]: ≤ 1000 nM; IC50 [14]: ≤ 1000 nM |
| O=C(Nc1ccc(Cl)nc1)c1ccc(Cl)c(-c2ccc(-c3ccccc3)cc2)c1 [Compound 13, 6-Chloro-[1,1′;4′,1″]terphenyl-3-carboxylic acid (6-chloro-pyridin-3-yl)-amide] |  | ≤ 1000 nM | ≤ 1000 nM | 1000 to 25000 nM | 1000 to 25000 nM | ≤ 1000 nM | 1000 to 25000 nM | ≤ 1000 nM | ≤ 1000 nM |  |
| COc1ccc(NC(=O)c2ccc(Cl)c(-c3ccc(-c4ccncc4)cc3)c2)cn1 [Compound 17, 6-Chloro-4′-pyridin-4-yl-biphenyl-3-carboxylic acid (6-methoxy-pyridin-3-yl)-amide] |  | ≤ 1000 nM | ≤ 1000 nM | ≤ 1000 nM | ≤ 1000 nM | ≤ 1000 nM | ≤ 1000 nM | ≤ 1000 nM | ≤ 1000 nM | IC50 [3]: ≤ 1000 nM; IC50 [10]: ≤ 1000 nM; IC50 [14]: ≤ 1000 nM |
| Cc1ccc(NC(=O)c2ccc(Cl)c(-c3ccc(-c4ccccc4)cc3)c2)cc1 [Compound 20, 6-Chloro-[1,1′;4′,1″]terphenyl-3-carboxylic acid p-tolylamide] |  | 1000 to 25000 nM | > 25000 nM | 1000 to 25000 nM | > 25000 nM | 1000 to 25000 nM | 1000 to 25000 nM | 1000 to 25000 nM | ≤ 1000 nM |  |

Now from value to compound, other results behind:

| IC50 [1] | IC50 [4] | IC50 [6] | IC50 [7] | IC50 [8] | IC50 [9] | IC50 [11] | IC50 [12] | IC50 [13] | Structure (SMILES) | further results |
| --- | --- | --- | --- | --- | --- | --- | --- | --- | --- | --- |
|  | 1000 to 25000 nM | 1000 to 25000 nM | 1000 to 25000 nM | 1000 to 25000 nM | 1000 to 25000 nM | 1000 to 25000 nM | 1000 to 25000 nM | 1000 to 25000 nM | O=C(NCCN1CCCC1)c1ccc(Cl)c(-c2ccc(-c3ccccc3)cc2)c1 [Compound 26, 6-Chloro-[1,1′;4′,1″]terphenyl-3-carboxylic acid (2-pyrrolidin-1-yl-ethyl)-amide] |  |
|  |  |  | 1000 to 25000 nM |  |  |  |  | ≤ 1000 nM | O=C(NCC(c1cccnc1)N1CCCC1)c1ccc(Cl)c(-c2ccc(-c3ccccc3)cc2)c1 (centres unmarked) [Compound 32, 6-Chloro-[1,1′;4′,1″]terphenyl-3-carboxylic acid (2-pyridin-3-yl-2-pyrrolidin-1-yl-ethyl)-amide] | IC50 [3]: 1000 to 25000 nM; IC50 [5]: ≤ 1000 nM; IC50 [10]: ≤ 1000 nM; IC50 [14]: 1000 to 25000 nM |
|  | 1000 to 25000 nM | > 25000 nM | 1000 to 25000 nM | 1000 to 25000 nM | 1000 to 25000 nM | 1000 to 25000 nM | 1000 to 25000 nM | 1000 to 25000 nM | O=C(NC1=NCCS1)c1ccc(Cl)c(-c2ccc(-c3ccccc3)cc2)c1 [Compound 33, 6″-Chloro-[1,1′;4′,1″]terphenyl-3″-carboxylic acid (4,5-dihydro-thiazol-2-yl)-amide] | IC50 [2]: 1000 to 25000 nM |
|  | ≤ 1000 nM |  |  |  |  |  |  | ≤ 1000 nM | O=C(Nc1ccc(N2CCNCC2)nc1)c1ccc(Cl)c(-c2ccc(-c3ccccc3)cc2)c1 [Compound 36, 6″-Chloro-[1,1′;4′,1″]terphenyl-3″-carboxylic acid (6-piperazin-1-yl-pyridin-3-yl)-amide] | IC50 [10]: ≤ 1000 nM; IC50 [14]: ≤ 1000 nM |
|  | ≤ 1000 nM | ≤ 1000 nM | ≤ 1000 nM | > 25000 nM | ≤ 1000 nM |  | ≤ 1000 nM | ≤ 1000 nM | COc1ccc(NC(=O)c2ccc(C)c(-c3ccc(-c4ccccn4)cc3)c2)cn1 [Compound 40, 6-Methyl-4′-pyridin-2-yl-biphenyl-3-carboxylic acid (6-methoxy-pyridin-3-yl)-amide] | IC50 [3]: ≤ 1000 nM; IC50 [5]: ≤ 1000 nM; IC50 [10]: ≤ 1000 nM |
|  | ≤ 1000 nM |  |  |  |  |  |  | ≤ 1000 nM | COc1ccc(NC(=O)c2ccc(Cl)c(-c3cccc(-c4ccccc4)c3)c2)cn1 [Compound 68, 6-Chloro-[1,1′;3′,1″]terphenyl-3-carboxylic acid (6-methoxy-pyridin-3-yl)-amide] |  |
|  |  |  | > 25000 nM |  |  |  |  | > 25000 nM | O=C(NC(CCc1ccccc1)C(=O)O)c1ccc(Cl)c(-c2cccc(-c3ccccc3)c2)c1 (centres unmarked) [Compound 223, 2-[(6-Chloro-[1,1′;3′,1″]terphenyl-3-carbonyl)-amino]-4-phenyl-butyric acid] |  |
|  |  |  | > 25000 nM |  |  |  |  | > 25000 nM | O=C(NC(CC1CCCCC1)C(=O)O)c1ccc(Cl)c(-c2cccc(-c3ccccc3)c2)c1 (centres unmarked) [Compound 236, 2-[(6-Chloro-[1,1′;3′,1″]terphenyl-3-carbonyl)-amino]-3-cyclohexyl-propionic acid] |  |
|  | ≤ 1000 nM | ≤ 1000 nM | ≤ 1000 nM | > 25000 nM | ≤ 1000 nM | 1000 to 25000 nM | ≤ 1000 nM | ≤ 1000 nM | COc1ccc(NC(=O)c2ccc(Cl)c(-c3ccc(-c4ccccc4)cc3)c2)cc1 [Compound 303, 6″-Chloro-[1,1′;4′,1″]terphenyl-3″-carboxylic acid (4-methoxy-phenyl)-amide] |  |
|  | ≤ 1000 nM | ≤ 1000 nM | ≤ 1000 nM | 1000 to 25000 nM | ≤ 1000 nM | 1000 to 25000 nM | ≤ 1000 nM | ≤ 1000 nM | O=C(Nc1ccc(F)nc1)c1ccc(Cl)c(-c2ccc(-c3ccccc3)cc2)c1 [Compound 338, 6-Chloro-[1,1′;4′,1″]terphenyl-3-carboxylic acid (6-fluoro-pyridin-3-yl)-amide] |  |
